Assay results: paper PMC9545004, “Transglutaminase 2 affinity and enzyme‐substrate intermediate stability as determining factors for T‐cell responses to gluten peptides in celiac disease” (European Journal of Immunology, 2022)
Read-outs that look alike come from different tables or passages of the source.

Columns and labels:
[1] = tested on: TG2:gluten complexes uptake by TG2-specific B cells (A20, BCR 679-14-E06); assay: Inhibition by primary amines of TG2:gluten complex uptake by TG2-specific B cells, flow cytometry; assay type: cell-based, Murine A20 B lymphoma; recombinant human TG2; conditions: for IC50: B-cell
From the text: (§1) Murine A20 B lymphoma cells engineered to express either the celiac patient‐derived TG2‐specific BCR 679‐14‐E06 or the non‐TG2‐specific BCR 693‐2‐F02 as human IgD are previously described. For B‐cell/T‐cell collaboration assays, we used A20 BCR transfectants also transduced to express HLA‐DQ2.5 [27]. Murine BW58α^–β^– cells were retrovirally transduced to express human CD4 as well as the celiac patient‐derived gluten‐specific TCR from a DQ2.5‐glia‐γ1‐reactive T‐cell clone (TCC 4.32) as previously described. The generation of TCR transfectants expressing DQ2.5‐glia‐α2‐reactive TCR (TCC 364.14) and DQ2.5‐glia‐ω2‐reactive TCR (clone 737.30) have been described previously.
B‐cell uptake of gluten peptides was measured essentially as previously described. The following 9‐mer peptides were compared: FITC‐α2, FITC‐ω2, FITC‐γ1, and FITC‐γ3. In brief, A20 cells (300 000/well) expressing TG2‐specific (679‐14‐E06) or non‐TG2 specific BCR (693‐2‐F02) were incubated with recombinant TG2 (final 3 µg/mL), 5 µM FITC peptide, and 2 mM CaCl2 in RPMI at a final volume of 50 µL. Following incubation at 37°C, the TG2 enzymatic activity was quenched by the addition of 100 µL 2 mM EDTA/RPMI at specific timepoints. Cells were washed, fixed in 2% methanol‐free formaldehyde (Invitrogen), resuspended in 2% fetal calf serum (FCS)/PBS, and analyzed by flow cytometry (Attune NxT Flow Cytometer, Thermo Scientific). For each peptide, a delta MFI was calculated by subtracting MFI from non‐TG2 specific A20 cell (unspecific binding) from MFI of TG2‐specific A20 cells. Delta MFI was normalized for each experiment by dividing by the highest delta value per experiment. To assess the contribution and uptake of isopeptide‐linked TG2:gluten complexes, TG2 (3 µg/mL) and FITC‐labelled peptides (5 µM) were preincubated in RPMI with 2 mM CaCl2 at 37°C for 30 min before addition of A20 cells followed by 30 min incubation at 37°C. To examine the effect of TG2 secondary substrates on peptide uptake, the primary amines spermine (Sigma–Aldrich) and biotinylated cadaverine (5‐biotinamido‐pentylamine; 5‐BP, Pierce) were added to the reaction mixture (0.1–1000 µM final concentration), followed by 10 min incubation at 37°C and flow cytometry analysis. The dose‐response curve fitting to find IC50 was done using the “[Inhibitor] vs. response” equation in GraphPad Prism 8.3.0. Of note, the presence of Lysine HCl in RPMI medium represents an experimental constant in our assays that is not accounted for when calculating the competitive effect of amine.

[2] = tested on: TCR-transfectant cells specific for DQ2.5-glia-α2; assay: Inhibition by primary amines of activation of DQ2.5-glia-α2-specific T cells by TG2-specific B cells, IL-2 ELISA; assay type: cell-based; conditions: for IC50: 5 µM N-α-gliadin 33-mer, TG2, CaCl2, amine 0-1000 µM, IL-2 ELISA
From the text: as §1
The B‐cell/T‐cell collaboration assays were set up as previously described. To compare the uptake and presentation of different gluten peptides to T cells, A20 cells (5 mill/mL) expressing the TG2‐specific BCR (679‐14‐E06) and HLA DQ2.5 were incubated with recombinant TG2 (final 3 µg/mL) and varying amounts of N‐α‐gliadin 20‐mer, N‐ω‐gliadin 19‐mer, or N‐γ‐gliadin 21‐mer in RPMI supplemented with 2 mM CaCl2. After a 30 min incubation at 37°C the cells were washed with 1% FCS/RPMI and resuspended in 5% FCS/RPMI to give a final 1.5 million cells/mL (150 000/well) followed by 2 h incubation at 37°C. Next, TCR‐transfectant cells specific for either DQ2.5‐glia‐α2, DQ2.5‐glia‐ω2, or DQ2.5‐glia‐γ1 were added (25 000/well), followed by overnight incubation at 37°C. The next day, IL‐2 concentration was measured in the culture supernatant by ELISA as previously described. The responsiveness of different TCR transfectants was assessed in the same way, but without the 30 min incubation with TG2, and using the synthetic deamidated peptides (D‐α‐gliadin 20‐mer, D‐ω‐gliadin 17‐mer, and D‐γ‐gliadin 21‐mer). To assess how TG2 secondary substrate affects peptide uptake and presentation to T cells, TG2‐specific A20 cells expressing DQ2.5 were incubated with TG2, CaCl2, 5 µM N‐ω‐gliadin 34‐mer, or 5 µM N‐α‐gliadin 33‐mer in the presence of primary amines at increasing concentrations (0‐1000 µM), before the addition of TCR‐transfectant cells specific for the DQ2.5‐glia‐α2 or DQ2.5‐glia‐ω2 epitopes. The dose‐response curve fitting to find IC50 was done using the “[Inhibitor] vs. response” equation in GraphPad Prism 8.3.0. To examine whether primary amines directly affect the B cells, TG2‐specific A20 cell expressing DQ2.5 were incubated with primary amines for 30 min and washed, before addition of 2 µM D‐ω‐gliadin 34‐mer, followed by incubation with DQ2.5‐glia‐ω2 TCR transfectants.

[3] = logIC50, inhibition of FITC-α2 uptake, Figure 4
[4] = logIC50, inhibition of FITC-α2 uptake, mean
[5] = logIC50, inhibition of FITC-α2 uptake, replicate Figure S4 A
[6] = logIC50, inhibition of FITC-α2 uptake, replicate Figure S4 B
[7] = logIC50, inhibition of FITC-ω2 uptake, Figure 4
[8] = logIC50, inhibition of FITC-ω2 uptake, mean
[9] = logIC50, inhibition of FITC-ω2 uptake, replicate Figure S4 A
[10] = logIC50, inhibition of FITC-ω2 uptake, replicate Figure S4 B
[11] = DQ2.5-glia-α2, replicate Figure S5A
[12] = DQ2.5-glia-α2, replicate Figure S5B
[13] = logIC50, DQ2.5-glia-α2, Figure 5
[14] = logIC50, DQ2.5-glia-α2, replicate Figure S5A
[15] = logIC50, DQ2.5-glia-α2, replicate Figure S5B

SMILES: NCCCCCNC(=O)CCCC[C@@H]1SC[C@@H]2NC(=O)N[C@@H]21 [5-BP, 5‐biotinamido‐pentylamine]
- IC50 ([1]; 10 min, inhibition of FITC-α2 (5 µM) uptake, TG2 3 µg/mL, 2 mM CaCl2, RPMI, 37°C 10 min, Figure 4, read-out: IC50): 22.7 µM
- IC50 ([1]; 10 min, inhibition of FITC-α2 (5 µM) uptake, TG2 3 µg/mL, 2 mM CaCl2, RPMI, 37°C 10 min, mean, read-out: IC50): 42 µM
- IC50 ([1]; 10 min, inhibition of FITC-α2 (5 µM) uptake, TG2 3 µg/mL, 2 mM CaCl2, RPMI, 37°C 10 min, replicate Figure S4 A, read-out: IC50): 57.9 µM
- IC50 ([1]; 10 min, inhibition of FITC-α2 (5 µM) uptake, TG2 3 µg/mL, 2 mM CaCl2, RPMI, 37°C 10 min, replicate Figure S4 B, read-out: IC50): 45.4 µM
- IC50 ([1]; 10 min, inhibition of FITC-ω2 (5 µM) uptake, TG2 3 µg/mL, 2 mM CaCl2, RPMI, 37°C 10 min, Figure 4, read-out: IC50): 20.7 µM
- IC50 ([1]; 10 min, inhibition of FITC-ω2 (5 µM) uptake, TG2 3 µg/mL, 2 mM CaCl2, RPMI, 37°C 10 min, mean (spermine: Figure S4 B not included), read-out: IC50): 72 µM
- IC50 ([1]; 10 min, inhibition of FITC-ω2 (5 µM) uptake, TG2 3 µg/mL, 2 mM CaCl2, RPMI, 37°C 10 min, replicate Figure S4 A, read-out: IC50): 130 µM
- IC50 ([1]; 10 min, inhibition of FITC-ω2 (5 µM) uptake, TG2 3 µg/mL, 2 mM CaCl2, RPMI, 37°C 10 min, replicate Figure S4 B (for spermine not included in the mean), read-out: IC50): 65.6 µM
- IC50 ([1]; FITC 9-mer native gluten peptides, average IC50 values, Table S1, read-out: IC50, inhibition of FITC-9-mer peptide uptake (average values)): 26 to 72 µM
- logIC50 ([1]; inhibition of FITC-α2 uptake, Figure 4): 1.36
- logIC50 ([1]; inhibition of FITC-α2 uptake, mean): 1.59
- logIC50 ([1]; inhibition of FITC-α2 uptake, replicate Figure S4 B): 1.66
- logIC50 ([1]; inhibition of FITC-ω2 uptake, Figure 4): 1.32
- logIC50 ([1]; inhibition of FITC-ω2 uptake, mean): 1.75
- logIC50 ([1]; inhibition of FITC-ω2 uptake, replicate Figure S4 A): 2.11
- logIC50 ([1]; inhibition of FITC-ω2 uptake, replicate Figure S4 B): 1.82
- log 95% CI lower limit [1, 3]: 1.04
- log 95% CI upper limit [1, 3]: 1.71
- log 95% CI lower limit [1, 4]: 1.35
- log 95% CI upper limit [1, 4]: 1.85
- log 95% CI lower limit [1, 5]: 1.52
- log 95% CI upper limit [1, 5]: 2.00
- log 95% CI lower limit [1, 6]: 1.50
- log 95% CI upper limit [1, 6]: 1.82
- log 95% CI lower limit [1, 7]: 1.09
- log 95% CI upper limit [1, 7]: 1.57
- log 95% CI lower limit [1, 8]: 1.48
- log 95% CI upper limit [1, 8]: 2.03
- log 95% CI lower limit [1, 9]: 1.86
- log 95% CI upper limit [1, 9]: 2.38
- log 95% CI lower limit [1, 10]: 1.50
- log 95% CI upper limit [1, 10]: 2.14
- IC50 ([2]; DQ2.5-glia-α2, Figure 5): 42.7 µM
- IC50 ([2]; DQ2.5-glia-α2, mean): 53.3 µM
- IC50 [2, 11]: 23.7 µM
- IC50 [2, 12]: 93.6 µM
- logIC50 ([2]; DQ2.5-glia-α2, Figure 5): 1.63
- logIC50 ([2]; DQ2.5-glia-α2, mean): 1.66
- logIC50 [2, 11]: 1.37
- logIC50 [2, 12]: 1.97
- log 95% CI lower limit [2, 13]: 1.48
- log 95% CI upper limit [2, 13]: 1.78
- log 95% CI lower limit ([2]; logIC50, DQ2.5-glia-α2, mean): 1.39
- log 95% CI upper limit ([2]; logIC50, DQ2.5-glia-α2, mean): 1.93
- log 95% CI lower limit [2, 14]: 1.15
- log 95% CI upper limit [2, 14]: 1.60
- log 95% CI lower limit [2, 15]: 1.54
- log 95% CI upper limit [2, 15]: 2.43
